Assays:
[1] = 101.33 kPa, Liquid; for speed of sound: Sing-around technique in a fixed-path interferometer; for mass density: Vibrating tube method
[2] = refractive index (Na D-line) (dimensionless); conditions: 101.33 kPa, Liquid, Standard Abbe refractometry

CC(C)COC(=O)CC[C@H]([NH3+])C(=O)OCC(C)C.CCCCCCCCCCCCOS(=O)(=O)[O-]
Conditions | mass density, [1] [kg/m3] | refractive index, [2] | speed of sound, [1] [m/s]
323.15 K | 1014.45 | 1.4472 | 1330.6
328.15 K | 1010.78 | 1.4453 | 1314.4
333.15 K | 1007.13 | 1.4432 | 1299.9
338.15 K | 1003.54 | 1.4414 | 1284.2
343.15 K | 1000 | 1.4393 | 1270.5

CC(C)OC(=O)CC[C@H]([NH3+])C(=O)OC(C)C.CCCCCCCCCCCCOS(=O)(=O)[O-]
Conditions | mass density, [1] [kg/m3] | refractive index, [2] | speed of sound, [1] [m/s]
288.15 K | 1057.9 | 1.4575 | 1439.7
293.15 K | 1054.11 | 1.4559 | 1412.8
298.15 K | 1050.31 | 1.4542 | 1389
303.15 K | 1046.47 | 1.4528 | 1367.6
308.15 K | 1042.57 | 1.4509 | 1347.9
313.15 K | 1038.6 | 1.4493 | 1329.5
318.15 K | 1034.81 | 1.4476 | 1312
323.15 K | 1031.13 | 1.4461 | 1295.3
328.15 K | 1027.46 | 1.4442 | 1279.2
333.15 K | 1023.79 | 1.4429 | 1263.5
338.15 K | 1021.2 | 1.441 | 1248.3
343.15 K | 1016.44 | 1.4392 | 1233.6

CC(C)OC(=O)[C@@H]([NH3+])C(C)C.CCCCCCCCCCCCOS(=O)(=O)[O-]
Conditions | mass density, [1] [kg/m3] | refractive index, [2] | speed of sound, [1] [m/s]
288.15 K | 1033.35 | 1.4555 | 1438.4
293.15 K | 1029.74 | 1.4541 | 1418.5
298.15 K | 1026.11 | 1.4527 | 1400.5
303.15 K | 1022.44 | 1.4514 | 1382.9
308.15 K | 1018.71 | 1.4495 | 1365.9
313.15 K | 1014.93 | 1.4483 | 1349.4
318.15 K | 1011.36 | 1.4465 | 1333.2
323.15 K | 1007.86 | 1.445 | 1317.4
328.15 K | 1004.37 | 1.4434 | 1301.9
333.15 K | 1000.88 | 1.4419 | 1286.6
338.15 K | 997.39 | 1.4403 | 1270.4
343.15 K | 993.9 | 1.4388 | 1254.9

CC(C)COC(=O)C[NH3+].CCCCCCCCCCCCOS(=O)(=O)[O-] [2-isobutoxy-2-oxoethan-1-aminium dodecyl sulfate]
Conditions | mass density, [1] [kg/m3] | refractive index, [2] | speed of sound, [1] [m/s]
303.15 K | 1013.62 | 1.4624 | 1372.1
308.15 K | 1009.88 | 1.4592 | 1355.2
313.15 K | 1006.14 | 1.456 | 1339
318.15 K | 1002.38 | 1.4527 | 1323
323.15 K | 998.71 | 1.4494 | 1307.6
328.15 K | 995.15 | 1.4462 | 1292.5
333.15 K | 991.89 | 1.443 | 1277.6
338.15 K | 988.22 | 1.4397 | 1263
343.15 K | 984.53 | 1.4365 | 1248.7

CC(C)OC(=O)C[NH3+].CCCCCCCCCCCCOS(=O)(=O)[O-] [2-isopropoxy-2-oxoethan-1-aminium dodecyl sulfate]
Conditions | mass density, [1] [kg/m3] | refractive index, [2] | speed of sound, [1] [m/s]
303.15 K | 1025.14 | 1.463 | 1373.4
308.15 K | 1021.37 | 1.4603 | 1355.1
313.15 K | 1017.68 | 1.4576 | 1337.6
318.15 K | 1014.16 | 1.4549 | 1320.9
323.15 K | 1010.65 | 1.4529 | 1305
328.15 K | 1007.14 | 1.4497 | 1289.6
333.15 K | 1003.63 | 1.4465 | 1274.6
338.15 K | 1000.12 | 1.4441 | 1259.9
343.15 K | 996.58 | 1.4414 | 1245.8

Source: the NIST ThermoML archive (doi:10.1021/je200788z)
